Test results taken from paper PMC11184554, “Nature-Inspired Gallinamides Are Potent Antischistosomal Agents: Inhibition of the Cathepsin B1 Protease Target and Binding Mode Analysis” (ACS Infectious Diseases, 2024).
Read-outs that look alike come from different tables or passages of the source.

Columns and labels:
[1] = molecular target: SmCB1 (Schistosoma mansoni, UniProt Q8MNY2, T185A/T300A); assay: SmCB1 IC50 determination with 30 min preincubation; assay type: biochemical, S. mansoni
Description: Inhibition measurements were performed in duplicate in 96-well microplates (100 μL assay volume) at 37 °C. SmCB1 (40 pM) was added to a mixture of the fluorogenic substrate Cbz–Phe–Arg–AMC (25 μM) and an inhibitor (0–100 μM) in 0.1 M sodium acetate, pH 5.5, containing 2.5 mM dithiothreitol and 0.01% (w/v) BRIJ 35. Substrate hydrolysis was monitored in an Infinite M1000 microplate reader (Tecan) at excitation and emission wavelengths of 360 and 465 nm, respectively, for up to 150 min. An observed first-order rate constant, kobs, was calculated at each inhibitor concentration by fitting the progress curve to the equation P = vi/kobs(1 – exp(−kobst)) + d where P is the product formation, t is the reaction time, vi is the initial velocity, and d is the offset. […] The second-order rate constant, k2nd, (and SE value) was determined by fitting the linear equation kobs = (k2nd[I])/(1 + [S]/Km), where [S] is the substrate concentration, [I] is the inhibitor concentration, and KM is the Michaelis–Menten constant. The KM value determined for SmCB1 was 25 μM. […] To determine IC50 values, SmCB1 (40 pM) was preincubated with the inhibitor (0–100 μM) for 30 min under assay conditions as described above, followed by the addition of the fluorogenic substrate Cbz–Phe–Arg–AMC (20 μM). Substrate hydrolysis was monitored for 30 min in a microplate reader as described above. The IC50 values were determined by nonlinear regression using GraFit software (Erithacus Software).

[2] = test system: ex vivo adult mixed sex S. mansoni; assay: Phenotypic screen with ex vivo adult schistosomes; assay type: cell-based; settings: for adult severity score: scale 0 to 4
Description: In the next step, the bioactive compounds gallinamide A, 1, 6, and 9 (selected for structural analyses (see below)) were phenotypically screened against adult schistosomes. Experiments were performed at 1, 2, 5, and 10 μM with ex vivo adult mixed sex S. mansoni, and the phenotypes observed over 48 h were assigned severity scores ranging from 0 to 4 (Table 3 and Table S3).
For adult schistosomes, screens were performed in 24-well plates containing four male worms and one to two female worms per well in a final volume of 2 mL of complete Basch medium. Compounds were added at the final concentrations between 1 and 10 μM. Incubations were maintained for 48 h at 37 °C under 5% CO2. Afterward, the adult worms were collected, washed in RPMI 1640 medium, and used for soluble protein extract preparation.
A constrained nomenclature of “descriptors”[39],[42] was used to record the multiple and dynamic changes in movement, shape, and translucence that the schistosome parasite is capable of (Table S1 for NTS and Table S3 for adults). These descriptors were then converted into an ordinal “severity score” system ranging from 0 (no effect) to 4 (maximum effect), which allows for the relative comparison of compound effects.

[3] = Cytotoxicity, CellTiter Glo 2.0; assay type: cell-based; settings: human, ± SD; for viability at 72 h, 1 µM: panel A, read-out: Cell line viability after 72 h (%); for viability at 24 h, 10 µM / viability at 48 h, 10 µM / viability at 72 h, 10 µM: panel B, read-out: Cell line viability (%) after treatment with 10 µM compound
Description: Table S4. Cytotoxicity of gallinamides.
Cytotoxicity of gallinamide A and compounds 1, 6, and 9 was tested with four human cell lines and expressed as % viability vs. untreated cells. Cells were treated with the indicated compound concentrations for 72 h (A) or with 10 µM compounds for the indicated time (B) and assayed using CellTiter Glo 2.0 (Promega) according to the manufacturer’ s protocol. Cytotoxicity was expressed as percent viability compared to untreated control cells; the standard deviation of the mean of quadruplicate readings is shown. Cell line abbreviations: HL-60, human promyelocytic leukemia; HeLa, human cervical carcinoma; HepG2, human hepatocellular carcinoma; NHDF, normal human dermal fibroblasts.
Cell line viability after 72 h (%)
Cell line HL-60 HeLa HepG2 NHDF
Cell line viability (%) after treatment w ith 10 µM compound

SmCB1, sequence (Q8MNY2 87-340 T185A/T300A): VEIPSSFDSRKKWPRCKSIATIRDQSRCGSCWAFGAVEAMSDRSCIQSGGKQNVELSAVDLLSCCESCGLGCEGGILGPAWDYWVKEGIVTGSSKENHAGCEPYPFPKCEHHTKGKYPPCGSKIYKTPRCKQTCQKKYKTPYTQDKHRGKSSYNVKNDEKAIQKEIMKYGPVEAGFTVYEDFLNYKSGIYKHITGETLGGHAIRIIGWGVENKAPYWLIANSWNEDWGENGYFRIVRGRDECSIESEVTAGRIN

With `CC[C@H](C)[C@@H](C(=O)O[C@@H](CC(C)C)C(=O)N[C@@H](CC(C)C)C(=O)N[C@@H](C)/C=C/C(=O)N1C(=O)C=C(OC)[C@@H]1C)N(C)C` [gallinamide A] the IC50 [1] was 44 nM, the adult phenotype descriptors ([2]; 2 h, 1 µM) was “N” and the adult severity score ([2]; 2 h, 1 μM) was 0. For the same compound, the adult phenotype descriptors ([2]; 2 h, 2 µM) was “N”, the adult severity score ([2]; 2 h, 2 μM) was 0 and the adult phenotype descriptors ([2]; 2 h, 5 µM) was “N”. The adult severity score ([2]; 2 h, 5 μM) was 0, the adult phenotype descriptors ([2]; 2 h, 10 µM) was “N” and the adult severity score ([2]; 2 h, 10 μM) was 0. For the same compound, the adult phenotype descriptors ([2]; 6 h, 1 µM) was “N”, the adult severity score ([2]; 6 h, 1 μM) was 0 and the adult phenotype descriptors ([2]; 6 h, 2 µM) was “N”. For the same compound, the adult severity score ([2]; 6 h, 2 μM) was 0, the adult phenotype descriptors ([2]; 6 h, 5 µM) was “N” and the adult severity score ([2]; 6 h, 5 μM) was 0. For the same compound, the adult phenotype descriptors ([2]; 6 h, 10 µM) was “N”, the adult severity score ([2]; 6 h, 10 μM) was 0 and the adult phenotype descriptors ([2]; 24 h, 1 µM) was “N”. For the same compound, the adult severity score ([2]; 24 h, 1 μM) was 0, the adult phenotype descriptors ([2]; 24 h, 2 µM) was “N” and the adult severity score ([2]; 24 h, 2 μM) was 0. The adult phenotype descriptors ([2]; 24 h, 5 µM) was “N”, the adult severity score ([2]; 24 h, 5 μM) was 0 and the adult phenotype descriptors ([2]; 24 h, 10 µM) was “unc”. For the same compound, the adult severity score ([2]; 24 h, 10 μM) was 1, the adult phenotype descriptors ([2]; 48 h, 1 µM) was “N” and the adult severity score ([2]; 48 h, 1 μM) was 0. The adult phenotype descriptors ([2]; 48 h, 2 µM) was “S, dark”, the adult severity score ([2]; 48 h, 2 μM) was 2 and the adult phenotype descriptors ([2]; 48 h, 5 µM) was “S, dark”. The adult severity score ([2]; 48 h, 5 μM) was 2, the adult severity score ([2]; 48 h, 10 μM) was 3 and the viability at 72 h, 1 µM ([3]; HL-60, vs untreated cells) was 100 ± 6%. For the same compound, the viability at 72 h, 1 µM ([3]; HeLa) was 96 ± 4%, the viability at 72 h, 1 µM ([3]; HepG2) was 96 ± 3% and the viability at 72 h, 1 µM ([3]; NHDF) was 105 ± 6%. The viability at 24 h, 10 µM ([3]; HL-60) was 99 ± 5%, the viability at 48 h, 10 µM ([3]; HL-60) was 77 ± 3% and the viability at 72 h, 10 µM ([3]; HL-60) was 73 ± 5%. The viability at 24 h, 10 µM ([3]; HeLa) was 77 ± 4%, the viability at 48 h, 10 µM ([3]; HeLa) was 73 ± 3% and the viability at 72 h, 10 µM ([3]; HeLa) was 88 ± 6%. For the same compound, the viability at 24 h, 10 µM ([3]; HepG2) was 93 ± 6%, the viability at 48 h, 10 µM ([3]; HepG2) was 98 ± 7% and the viability at 72 h, 10 µM ([3]; HepG2) was 94 ± 11%. The viability at 24 h, 10 µM ([3]; NHDF) was 80 ± 2%, the viability at 48 h, 10 µM ([3]; NHDF) was 89 ± 3% and the viability at 72 h, 10 µM ([3]; NHDF) was 94 ± 94%.

With `CCC(C)C(C(=O)OC(CC(C)C)C(=O)NC(CC(C)C)C(=O)NC(C)C=CC(=O)N1C(=O)C=C(OC)C1CC(C)C)N(C)C` (stereo not drawn) [compound 1] the IC50 [1] was 92 nM, the adult phenotype descriptors ([2]; 2 h, 1 µM) was “N” and the adult severity score ([2]; 2 h, 1 μM) was 0. The adult phenotype descriptors ([2]; 2 h, 2 µM) was “N”, the adult severity score ([2]; 2 h, 2 μM) was 0 and the adult phenotype descriptors ([2]; 2 h, 5 µM) was “N”. For the same compound, the adult severity score ([2]; 2 h, 5 μM) was 0, the adult phenotype descriptors ([2]; 2 h, 10 µM) was “N” and the adult severity score ([2]; 2 h, 10 μM) was 0. For the same compound, the adult phenotype descriptors ([2]; 6 h, 1 µM) was “N”, the adult severity score ([2]; 6 h, 1 μM) was 0 and the adult phenotype descriptors ([2]; 6 h, 2 µM) was “N”. For the same compound, the adult severity score ([2]; 6 h, 2 μM) was 0, the adult phenotype descriptors ([2]; 6 h, 5 µM) was “N” and the adult severity score ([2]; 6 h, 5 μM) was 0. For the same compound, the adult phenotype descriptors ([2]; 6 h, 10 µM) was “unc”, the adult severity score ([2]; 6 h, 10 μM) was 1 and the adult phenotype descriptors ([2]; 24 h, 1 µM) was “N”. For the same compound, the adult severity score ([2]; 24 h, 1 μM) was 0, the adult phenotype descriptors ([2]; 24 h, 2 µM) was “N” and the adult severity score ([2]; 24 h, 2 μM) was 0. The adult phenotype descriptors ([2]; 24 h, 5 µM) was “N”, the adult severity score ([2]; 24 h, 5 μM) was 0 and the adult severity score ([2]; 24 h, 10 μM) was 4. For the same compound, the adult phenotype descriptors ([2]; 48 h, 1 µM) was “N”, the adult severity score ([2]; 48 h, 1 μM) was 0 and the adult phenotype descriptors ([2]; 48 h, 2 µM) was “unc, dark”. For the same compound, the adult severity score ([2]; 48 h, 2 μM) was 2, the adult phenotype descriptors ([2]; 48 h, 5 µM) was “unc, dark” and the adult severity score ([2]; 48 h, 5 μM) was 2. For the same compound, the adult severity score ([2]; 48 h, 10 μM) was 4.

With `CCC(C)C(C(=O)OC(CC(C)C)C(=O)NC(CC(C)C)C(=O)NC(C)C=CC(=O)N1C(=O)C=C(OC)C1Cc1ccccc1)N(C)C` (stereo not drawn) [compound 9] the adult phenotype descriptors ([2]; 2 h, 1 µM) was “N”, the adult severity score ([2]; 2 h, 1 μM) was 0 and the adult phenotype descriptors ([2]; 2 h, 2 µM) was “N”. For the same compound, the adult severity score ([2]; 2 h, 2 μM) was 0, the adult phenotype descriptors ([2]; 2 h, 5 µM) was “unc” and the adult severity score ([2]; 2 h, 5 μM) was 1. For the same compound, the adult phenotype descriptors ([2]; 2 h, 10 µM) was “unc”, the adult severity score ([2]; 2 h, 10 μM) was 1 and the adult phenotype descriptors ([2]; 6 h, 1 µM) was “N”. The adult severity score ([2]; 6 h, 1 μM) was 0, the adult phenotype descriptors ([2]; 6 h, 2 µM) was “N” and the adult severity score ([2]; 6 h, 2 μM) was 0. For the same compound, the adult phenotype descriptors ([2]; 6 h, 5 µM) was “unc”, the adult severity score ([2]; 6 h, 5 μM) was 1 and the adult phenotype descriptors ([2]; 6 h, 10 µM) was “unc, on sides”. For the same compound, the adult severity score ([2]; 6 h, 10 μM) was 2, the adult phenotype descriptors ([2]; 24 h, 1 µM) was “N” and the adult severity score ([2]; 24 h, 1 μM) was 0. For the same compound, the adult phenotype descriptors ([2]; 24 h, 2 µM) was “N”, the adult severity score ([2]; 24 h, 2 μM) was 0 and the adult phenotype descriptors ([2]; 24 h, 5 µM) was “unc, Dark”. The adult severity score ([2]; 24 h, 5 μM) was 2, the adult severity score ([2]; 24 h, 10 μM) was 4 and the adult phenotype descriptors ([2]; 48 h, 1 µM) was “N”. For the same compound, the adult severity score ([2]; 48 h, 1 μM) was 0, the adult phenotype descriptors ([2]; 48 h, 2 µM) was “unc, dark” and the adult severity score ([2]; 48 h, 2 μM) was 2. The adult severity score ([2]; 48 h, 5 μM) was 4 and the adult severity score ([2]; 48 h, 10 μM) was 4.
